What all share (assay type): in vitro ADME
The target in one data set is CYP2C8 (Homo sapiens, UniProt P10632). The experiment in a line: CYP-enzyme phenotyping using human liver microsomes and recombinant CYP enzymes. Also on record: CYP-enzyme phenotyping using human liver microsomes and recombinant CYP enzymes; from tissue; host or cells: human liver microsomes. In general terms: Liver microsomes are vesicles of endoplasmic reticulum, rich in cytochrome P450 enzymes.

The target of another data set is P-gp (Homo sapiens, UniProt P08183). The experiment in a line: Transporter inhibition.
For data set [1], the target named is T1, breast cancer resistance protein (BCRP) (Homo sapiens, UniProt Q9UNQ0).
T1 sequence (Q9UNQ0 1-655): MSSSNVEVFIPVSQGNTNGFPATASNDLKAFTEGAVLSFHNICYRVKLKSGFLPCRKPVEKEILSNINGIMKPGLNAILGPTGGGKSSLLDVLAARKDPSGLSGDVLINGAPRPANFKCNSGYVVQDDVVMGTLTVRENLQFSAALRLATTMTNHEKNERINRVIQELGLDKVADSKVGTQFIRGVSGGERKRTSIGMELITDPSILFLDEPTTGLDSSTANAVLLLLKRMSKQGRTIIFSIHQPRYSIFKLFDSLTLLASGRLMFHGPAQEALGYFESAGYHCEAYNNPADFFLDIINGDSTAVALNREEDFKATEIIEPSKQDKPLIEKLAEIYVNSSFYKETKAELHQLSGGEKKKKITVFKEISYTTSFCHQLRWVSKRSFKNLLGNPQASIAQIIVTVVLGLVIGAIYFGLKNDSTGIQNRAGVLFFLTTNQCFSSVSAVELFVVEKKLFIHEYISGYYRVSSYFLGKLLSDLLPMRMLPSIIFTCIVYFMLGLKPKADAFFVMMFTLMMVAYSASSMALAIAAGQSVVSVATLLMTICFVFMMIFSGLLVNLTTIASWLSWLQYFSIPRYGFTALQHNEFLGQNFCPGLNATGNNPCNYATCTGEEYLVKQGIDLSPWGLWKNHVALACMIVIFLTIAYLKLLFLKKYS
The experiment in a line: Transporter inhibition.

In a further data set the target is CYP2C19 (Homo sapiens, UniProt P33261). Briefly: CYP enzyme inhibition.
A further data set has as its target CYP2C9 (Homo sapiens, UniProt P11712). Briefly: CYP enzyme inhibition.

Results on 2 compounds are retold here after patent US11878049B1, “Mitapivat therapy and modulators of cytochrome P450” (Agios Pharmaceuticals, Inc., priority 2019, dated 2024).

Chain of P-gp (P08183 whole entry): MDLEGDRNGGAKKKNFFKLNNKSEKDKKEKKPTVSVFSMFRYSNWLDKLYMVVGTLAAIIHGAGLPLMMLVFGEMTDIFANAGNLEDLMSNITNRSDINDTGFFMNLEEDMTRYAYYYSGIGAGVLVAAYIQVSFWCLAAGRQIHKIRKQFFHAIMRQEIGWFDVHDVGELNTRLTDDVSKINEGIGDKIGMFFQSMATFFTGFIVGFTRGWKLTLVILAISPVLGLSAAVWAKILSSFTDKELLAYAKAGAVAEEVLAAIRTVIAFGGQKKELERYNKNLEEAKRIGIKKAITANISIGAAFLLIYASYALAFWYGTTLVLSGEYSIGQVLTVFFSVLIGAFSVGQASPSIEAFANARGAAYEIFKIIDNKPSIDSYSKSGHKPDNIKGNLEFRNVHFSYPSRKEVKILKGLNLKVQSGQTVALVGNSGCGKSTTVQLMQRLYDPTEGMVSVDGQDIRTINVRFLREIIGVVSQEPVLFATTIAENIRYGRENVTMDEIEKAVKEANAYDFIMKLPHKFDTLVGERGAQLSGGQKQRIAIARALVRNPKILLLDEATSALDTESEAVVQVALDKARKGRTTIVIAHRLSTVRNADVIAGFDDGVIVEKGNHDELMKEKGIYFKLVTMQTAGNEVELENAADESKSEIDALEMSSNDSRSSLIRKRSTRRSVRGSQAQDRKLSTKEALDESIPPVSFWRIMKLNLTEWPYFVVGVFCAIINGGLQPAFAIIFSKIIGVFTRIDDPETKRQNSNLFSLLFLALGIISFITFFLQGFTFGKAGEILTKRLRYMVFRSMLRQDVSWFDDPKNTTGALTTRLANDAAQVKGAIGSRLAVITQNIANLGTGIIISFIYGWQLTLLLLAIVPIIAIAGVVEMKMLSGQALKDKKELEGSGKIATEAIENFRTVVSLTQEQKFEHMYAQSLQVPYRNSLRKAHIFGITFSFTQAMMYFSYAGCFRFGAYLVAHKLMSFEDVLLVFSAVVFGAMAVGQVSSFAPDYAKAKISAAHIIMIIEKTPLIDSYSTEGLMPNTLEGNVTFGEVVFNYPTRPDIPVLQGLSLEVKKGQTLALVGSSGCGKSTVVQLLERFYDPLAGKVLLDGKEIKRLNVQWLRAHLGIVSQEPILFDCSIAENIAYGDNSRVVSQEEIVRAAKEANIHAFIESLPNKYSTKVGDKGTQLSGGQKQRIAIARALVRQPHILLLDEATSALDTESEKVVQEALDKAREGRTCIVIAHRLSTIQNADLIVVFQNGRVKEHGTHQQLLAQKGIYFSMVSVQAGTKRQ
Chain of CYP2C9 (P11712 whole entry): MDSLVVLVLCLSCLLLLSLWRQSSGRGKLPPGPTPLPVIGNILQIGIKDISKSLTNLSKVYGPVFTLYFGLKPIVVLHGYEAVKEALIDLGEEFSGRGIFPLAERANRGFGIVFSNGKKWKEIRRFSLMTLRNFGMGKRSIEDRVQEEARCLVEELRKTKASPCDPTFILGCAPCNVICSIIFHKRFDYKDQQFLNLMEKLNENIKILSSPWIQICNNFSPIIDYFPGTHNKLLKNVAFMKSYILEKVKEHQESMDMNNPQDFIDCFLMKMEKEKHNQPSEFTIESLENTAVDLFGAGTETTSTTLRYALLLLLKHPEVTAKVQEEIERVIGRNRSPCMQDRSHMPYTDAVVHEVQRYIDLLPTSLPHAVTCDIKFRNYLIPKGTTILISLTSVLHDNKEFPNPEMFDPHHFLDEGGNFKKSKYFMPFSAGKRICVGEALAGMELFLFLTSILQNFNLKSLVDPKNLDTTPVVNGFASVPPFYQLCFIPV
Chain of CYP2C8 (P10632 whole entry): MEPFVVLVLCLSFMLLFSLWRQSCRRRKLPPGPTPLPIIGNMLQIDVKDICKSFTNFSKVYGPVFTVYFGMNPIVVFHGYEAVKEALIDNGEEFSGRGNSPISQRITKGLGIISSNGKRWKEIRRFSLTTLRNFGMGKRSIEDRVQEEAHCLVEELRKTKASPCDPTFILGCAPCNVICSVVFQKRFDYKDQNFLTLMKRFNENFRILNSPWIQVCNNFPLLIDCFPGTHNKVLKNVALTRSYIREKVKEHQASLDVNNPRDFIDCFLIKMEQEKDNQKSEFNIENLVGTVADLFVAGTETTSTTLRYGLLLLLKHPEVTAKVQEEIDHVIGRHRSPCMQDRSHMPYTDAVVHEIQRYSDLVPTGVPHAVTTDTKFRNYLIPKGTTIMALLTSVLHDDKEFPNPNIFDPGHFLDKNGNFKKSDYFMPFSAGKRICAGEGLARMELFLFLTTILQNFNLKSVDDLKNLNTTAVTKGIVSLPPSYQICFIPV
Chain of CYP2C19 (P33261 whole entry): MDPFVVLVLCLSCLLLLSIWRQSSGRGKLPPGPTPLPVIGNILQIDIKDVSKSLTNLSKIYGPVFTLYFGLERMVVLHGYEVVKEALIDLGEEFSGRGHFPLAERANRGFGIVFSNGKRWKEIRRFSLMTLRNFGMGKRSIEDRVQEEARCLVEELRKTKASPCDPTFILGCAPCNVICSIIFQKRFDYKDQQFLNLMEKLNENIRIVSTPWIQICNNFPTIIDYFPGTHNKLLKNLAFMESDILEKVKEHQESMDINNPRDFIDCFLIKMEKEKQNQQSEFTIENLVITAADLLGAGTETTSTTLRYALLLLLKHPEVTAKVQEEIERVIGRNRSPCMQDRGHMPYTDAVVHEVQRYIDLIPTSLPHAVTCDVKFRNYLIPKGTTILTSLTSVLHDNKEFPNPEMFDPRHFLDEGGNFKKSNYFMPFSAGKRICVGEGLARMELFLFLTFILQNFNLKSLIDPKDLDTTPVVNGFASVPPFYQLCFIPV

For `O=C(c1ccc(NS(=O)(=O)c2cccc3cccnc23)cc1)N1CCN(CC2CC2)CC1` [Mitapivat, N-(4-(4-(cyclopropylmethyl)piperazine-1-carbonyl)phenyl)quinoline-8-sulfonamide], the “Contribution of CYP2C8 to metabolism” value at CYP2C8 is on record as “minor contributions”.
Turning to `O=C(c1ccc(NS(=O)(=O)c2cccc3cccnc23)cc1)N1CCNCC1` [Metabolite], at P-gp, the “Inhibitor for P-gp” value is reported as “not an inhibitor”. Besides, in data set [1], the “Inhibitor for BCRP” value was “not an inhibitor”. Moreover, the “Inhibition of CYP2C19” value at CYP2C19 is on record as “mild inhibitor”. The “Inhibition of CYP2C9” value at CYP2C9 was “mild inhibitor”.
